Read-outs that look alike come from different tables or passages of the source.
Legend:
Type in all cases: in vivo
corn (Zea mays) = test: Test B pre/postemergence; conditions: Zea mays
Method in brief: (§1)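 Visual injury scored 0 (no effect) to 100 (complete control) versus untreated controls after 13 to 15 days in greenhouse. Treatments were pre- or postemergence sprays of surfactant-containing solvent formulations; postemergence plants at 1- to 4-leaf stage, 2 to 18 cm.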

[1] = test system: barnyardgrass (Echinochloa crus-galli); test: Test B pre/postemergence; conditions: Echinochloa crus-galli; for pest or weed control at 125 g/ha: 125 g ai/ha; for pest or weed control at 500 g/ha: 500 g ai/ha
Method in brief: as §1

[2] = test system: morningglory (Ipomoea coccinea); test: Test B pre/postemergence; conditions: Ipomoea; for pest or weed control at 125 g/ha: 125 g ai/ha; for pest or weed control at 500 g/ha: 500 g ai/ha
Method in brief: as §1

[3] = test system: velvetleaf (Abutilon theophrasti); test: Test B pre/postemergence; conditions: Abutilon theophrasti; for pest or weed control at 125 g/ha: 125 g ai/ha; for pest or weed control at 500 g/ha: 500 g ai/ha
Method in brief: as §1

[4] = test system: wheat (Triticum aestivum); test: Test B pre/postemergence; conditions: Triticum aestivum; for plant injury at 125 g/ha: 125 g ai/ha; for plant injury at 500 g/ha: 500 g ai/ha
Method in brief: as §1

[5] = test system: lambsquarters (Chenopodium album); test: Test B pre/postemergence; conditions: Chenopodium album; for pest or weed control at 125 g/ha: 125 g ai/ha; for pest or weed control at 500 g/ha: 500 g ai/ha
Method in brief: as §1

[6] = test system: cocklebur (Xanthium strumarium); test: Test B pre/postemergence; conditions: Xanthium strumarium; for pest or weed control at 125 g/ha: 125 g ai/ha; for pest or weed control at 500 g/ha: 500 g ai/ha
Method in brief: as §1

[7] = test system: Surinam grass (Brachiaria decumbens); test: Test B pre/postemergence; conditions: Urochloa decumbens; for pest or weed control at 125 g/ha: 125 g ai/ha; for pest or weed control at 500 g/ha: 500 g ai/ha
Method in brief: as §1

[8] = test system: pigweed (Amaranthus retroflexus); test: Test B pre/postemergence; conditions: Amaranthus retroflexus; for pest or weed control at 125 g/ha: 125 g ai/ha; for pest or weed control at 500 g/ha: 500 g ai/ha
Method in brief: as §1

[9] = test system: giant foxtail (Setaria faberii); test: Test B pre/postemergence; conditions: Setaria faberi; for pest or weed control at 125 g/ha: 125 g ai/ha; for pest or weed control at 500 g/ha: 500 g ai/ha
Method in brief: as §1

[10] = test system: crabgrass (Digitaria sanguinalis); test: Test B pre/postemergence; conditions: Digitaria sanguinalis; for pest or weed control at 125 g/ha: 125 g ai/ha; for pest or weed control at 500 g/ha: 500 g ai/ha
Method in brief: as §1

[11] = test system: barnyardgrass (Echinochloa crus-galli); test: Test B flooded paddy test; conditions: Echinochloa crus-galli, Flood, 1000 g ai/ha; scale 0 (no effect) to 100 (complete control); read-out: Plant response rating, Barnyardgrass
Method in brief: (§2)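 Rice, umbrella sedge, duck salad and barnyardgrass grown to 2-leaf stage under flooded paddy conditions and treated with formulated test chemicals. Kept in greenhouse 13–15 days, then visually rated against untreated controls on a 0–100 scale (0 no effect, 100 complete control).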

rice (Oryza sativa) = test: Test B flooded paddy test; conditions: Oryza sativa, Flood, 1000 g ai/ha; scale 0 to 100; read-out: Plant response rating, Rice
Method in brief: as §2

[12] = test system: duck salad (Heteranthera limosa); test: Test B flooded paddy test; conditions: Heteranthera limosa, Flood, 1000 g ai/ha; scale 0 to 100; read-out: Plant response rating, Ducksalad
Method in brief: as §2

[13] = test system: umbrella sedge (Cyperus difformis); test: Test B flooded paddy test; conditions: Cyperus difformis, Flood, 1000 g ai/ha; scale 0 to 100; read-out: Plant response rating, Sedge, Umbrella
Method in brief: as §2

wild oat (Avena fatua) = test: Test B postemergence; conditions: Avena fatua, post-emergence
Method in brief: as §1

[14] = test system: blackgrass (Alopecurus myosuroides); test: Test B postemergence; conditions: Alopecurus myosuroides, post-emergence
Method in brief: as §1

Nc1nc(C2CC2)nc(CO)c1Br [Compound 21]
plant injury at 125 g/ha (corn (Zea mays); post-emergence, Postemergence, 125 g ai/ha, scale 0 to 100 (0 no effect, 100 complete control), read-out: Corn plant response rating): 0%
Corn plant response rating (crop injury, 0 = no effect, 100 = complete kill) at 500 g/ha (corn (Zea mays); post-emergence, Postemergence, 500 g ai/ha, scale 0 to 100): 0%
Corn plant response rating (crop injury, 0 = no effect, 100 = complete kill) at 125 g/ha (corn (Zea mays); pre-emergence, Preemergence, 125 g ai/ha, scale 0 to 100 (0 no effect, 100 complete control)): 0%
pest or weed control at 125 g/ha ([1]; post-emergence, Postemergence, scale 0 to 100 (0 no effect, 100 complete control), read-out: Barnyardgrass plant response rating): 0%
pest or weed control at 500 g/ha ([1]; post-emergence, Postemergence, scale 0 to 100, read-out: Plant response rating, Barnyardgrass): 0%
pest or weed control at 125 g/ha ([1]; pre-emergence, Preemergence, scale 0 to 100 (0 no effect, 100 complete control), read-out: Plant response rating, Barnyardgrass): 0%
pest or weed control at 500 g/ha ([1]; pre-emergence, Preemergence, scale 0 to 100 (0 no effect, 100 complete control), read-out: Barnyardgrass plant response rating): 10%
pest or weed control at 125 g/ha ([2]; post-emergence, Postemergence, scale 0 to 100 (0 no effect, 100 complete control), read-out: Morningglory plant response rating): 10%
pest or weed control at 500 g/ha ([2]; post-emergence, Postemergence, scale 0 to 100, read-out: Plant response rating, Morningglory): 30%
pest or weed control at 125 g/ha ([2]; pre-emergence, Preemergence, scale 0 to 100 (0 no effect, 100 complete control), read-out: Plant response rating, Morningglory): 50%
pest or weed control at 500 g/ha ([2]; pre-emergence, Preemergence, scale 0 to 100 (0 no effect, 100 complete control), read-out: Morningglory plant response rating): 90%
pest or weed control at 125 g/ha ([3]; post-emergence, Postemergence, scale 0 to 100 (0 no effect, 100 complete control), read-out: Velvetleaf plant response rating): 10%
pest or weed control at 500 g/ha ([3]; post-emergence, Postemergence, scale 0 to 100, read-out: Plant response rating, Velvetleaf): 30%
pest or weed control at 125 g/ha ([3]; pre-emergence, Preemergence, scale 0 to 100 (0 no effect, 100 complete control), read-out: Plant response rating, Velvetleaf): 10%
pest or weed control at 500 g/ha ([3]; pre-emergence, Preemergence, scale 0 to 100 (0 no effect, 100 complete control), read-out: Velvetleaf plant response rating): 80%
plant injury at 125 g/ha ([4]; post-emergence, Postemergence, scale 0 to 100 (0 no effect, 100 complete control), read-out: Wheat plant response rating): 10%
plant injury at 500 g/ha ([4]; post-emergence, Postemergence, scale 0 to 100, read-out: Plant response rating, Wheat): 20%
plant injury at 125 g/ha ([4]; pre-emergence, Preemergence, scale 0 to 100 (0 no effect, 100 complete control), read-out: Plant response rating, Wheat): 0%
plant injury at 500 g/ha ([4]; pre-emergence, Preemergence, scale 0 to 100 (0 no effect, 100 complete control), read-out: Wheat plant response rating): 30%
pest or weed control at 125 g/ha ([5]; post-emergence, Postemergence, scale 0 to 100 (0 no effect, 100 complete control), read-out: Lambsquarters plant response rating): 10%
pest or weed control at 500 g/ha ([5]; post-emergence, Postemergence, scale 0 to 100, read-out: Plant response rating, Lambsquarters): 20%
pest or weed control at 125 g/ha ([5]; pre-emergence, Preemergence, scale 0 to 100 (0 no effect, 100 complete control), read-out: Plant response rating, Lambsquarters): 70%
pest or weed control at 500 g/ha ([5]; pre-emergence, Preemergence, scale 0 to 100 (0 no effect, 100 complete control), read-out: Lambsquarters plant response rating): 80%
pest or weed control at 125 g/ha ([6]; post-emergence, Postemergence, scale 0 to 100 (0 no effect, 100 complete control), read-out: Cocklebur plant response rating): 0%
pest or weed control at 500 g/ha ([6]; post-emergence, Postemergence, scale 0 to 100, read-out: Plant response rating, Cocklebur): 10%
pest or weed control at 125 g/ha ([6]; pre-emergence, Preemergence, scale 0 to 100 (0 no effect, 100 complete control), read-out: Plant response rating, Cocklebur): 30%
pest or weed control at 500 g/ha ([6]; pre-emergence, Preemergence, scale 0 to 100 (0 no effect, 100 complete control), read-out: Cocklebur plant response rating): 80%
pest or weed control at 125 g/ha ([7]; post-emergence, Postemergence, scale 0 to 100 (0 no effect, 100 complete control), read-out: Surinam Grass plant response rating): 0%
pest or weed control at 500 g/ha ([7]; post-emergence, Postemergence, scale 0 to 100, read-out: Plant response rating, Surinam Grass): 0%
pest or weed control at 125 g/ha ([7]; pre-emergence, Preemergence, scale 0 to 100 (0 no effect, 100 complete control), read-out: Plant response rating, Surinam Grass): 0%
pest or weed control at 500 g/ha ([7]; pre-emergence, Preemergence, scale 0 to 100 (0 no effect, 100 complete control), read-out: Surinam Grass plant response rating): 20%
pest or weed control at 125 g/ha ([8]; post-emergence, Postemergence, scale 0 to 100 (0 no effect, 100 complete control), read-out: Pigweed plant response rating): 0%
pest or weed control at 500 g/ha ([8]; post-emergence, Postemergence, scale 0 to 100, read-out: Plant response rating, Pigweed): 30%
pest or weed control at 125 g/ha ([8]; pre-emergence, Preemergence, scale 0 to 100 (0 no effect, 100 complete control), read-out: Plant response rating, Pigweed): 50%
pest or weed control at 500 g/ha ([8]; pre-emergence, Preemergence, scale 0 to 100 (0 no effect, 100 complete control), read-out: Pigweed plant response rating): 70%
pest or weed control at 125 g/ha ([9]; post-emergence, Postemergence, scale 0 to 100 (0 no effect, 100 complete control), read-out: Foxtail, Giant plant response rating): 0%
pest or weed control at 500 g/ha ([9]; post-emergence, Postemergence, scale 0 to 100, read-out: Plant response rating, Foxtail, Giant): 0%
pest or weed control at 125 g/ha ([9]; pre-emergence, Preemergence, scale 0 to 100 (0 no effect, 100 complete control), read-out: Plant response rating, Foxtail, Giant): 0%
pest or weed control at 500 g/ha ([9]; pre-emergence, Preemergence, scale 0 to 100 (0 no effect, 100 complete control), read-out: Foxtail, Giant plant response rating): 10%
pest or weed control at 125 g/ha ([10]; post-emergence, Postemergence, scale 0 to 100 (0 no effect, 100 complete control), read-out: Crabgrass plant response rating): 0%
pest or weed control at 500 g/ha ([10]; post-emergence, Postemergence, scale 0 to 100, read-out: Plant response rating, Crabgrass): 0%
pest or weed control at 125 g/ha ([10]; pre-emergence, Preemergence, scale 0 to 100 (0 no effect, 100 complete control), read-out: Plant response rating, Crabgrass): 0%
pest or weed control at 500 g/ha ([10]; pre-emergence, Preemergence, scale 0 to 100 (0 no effect, 100 complete control), read-out: Crabgrass plant response rating): 60%
pest or weed control at 1000 g/ha [11]: 60%
plant injury at 1000 g/ha (rice (Oryza sativa)): 40%
pest or weed control at 1000 g/ha [12]: 80%
pest or weed control at 1000 g/ha [13]: 0%
pest or weed control at 125 g/ha (wild oat (Avena fatua); 125 g ai/ha, scale 0 to 100 (0 no effect, 100 complete control), read-out: Oat, Wild plant response rating): 0%
pest or weed control at 500 g/ha (wild oat (Avena fatua); 500 g ai/ha, scale 0 to 100, read-out: Plant response rating, Oat, Wild): 0%
pest or weed control at 125 g/ha ([14]; 125 g ai/ha, scale 0 to 100 (0 no effect, 100 complete control), read-out: Blackgrass plant response rating): 10%
pest or weed control at 500 g/ha ([14]; 500 g ai/ha, scale 0 to 100, read-out: Plant response rating, Blackgrass): 20%

— patent US8802597B2, “Herbicidal pyrimidines” (E I du Pont de Nemours and Company, priority 2003, dated 2014)
